Patent US9987399B2, “Non-biodegradable stent comprising a biodegradable coating and method of coating the same” (Nanyang Technological University, priority 2007, dated 2018)

Test system: platelets (platelet rich plasma)
Test: In vitro thrombogenicity/platelet adhesion, dynamic method with I-125 labeled PRP
Type: cell-based, Human
Conditions: 10% loading in PLGA 80/20 coating on metal strips, 2 hours perfusion at 40 mL min^−1; FIG. 5
Experimental: Metal strips with coatings of PLGA 80/20 containing varying amounts of triflusal (4, 7 and 10 wt %) were tested for thrombogenicity/platelet adhesion using a dynamic method. Human blood was collected and anti-coagulated. Platelet rich plasma (PRP) was then prepared from the blood, and labeled with radioactive iodine, I-125. The test samples were exposed to this labeled PRP for 2 hours under perfusion at a flow rate of 40 mL min^−1. Radioscintigraphy was then used on the washed and rinsed metal-coated strips, to count the number of adhered platelets.

For `CC(=O)Oc1cc(C(F)(F)F)ccc1C(=O)O` [triflusal], the platelet adhesion was “effective at reducing platelet adhesion”.
